# Structures can show the parent of a compound that is named as a salt.
# What was measured:
# [1] = test system: thrombocyte aggregation in platelet-rich plasma; assay: Antithrombotic effect: collagen-induced thrombocyte aggregation in platelet-rich plasma (Born and Cross); format: cell-based; settings: human platelet-rich plasma, 10 minutes preincubation at 37° C., read-out: Inhibition of platelet aggregation EC50
# Description: 2. Antithrombotic Effect Method: The thrombocyte aggregation was measured in platelet-rich plasma from healthy test subjects using the Born and Cross method (J. Physiol. 170: 397 (1964)). In order to inhibit coaggulation the blood was mixed with 3.14% sodium citrate in a ratio by volume of 1:10. Collagen-induced aggregation: The decrease in the optical density of the platelet suspension was measured photometrically and recorded after the addition of the aggregation-initiating substance. The speed of aggregation was concluded from the angle of inclination of the density curve. The point on the curve at which there was maximum transmittance was used to calculate the optical density. The quantity of collagen used was as little as possible but sufficient to give an irreversible reaction curve. Standard commercial collagen produced by Hormonchemie of Munich was used. Before the addition of collagen the plasma was incubated with the substance for 10 minutes at 37° C. From the measurements obtained, an EC50 was determined graphically, relating to a 50% change in the optical density in terms of inhibiting aggregation.
# Human Thrombocytes = assay: Fibrinogen Binding to Human Thrombocytes (I125-fibrinogen, gel-filtered platelets); settings: inhibition of I125-fibrinogen binding to gel-filtered human platelets, ADP, 20 minutes, ambient temperature; read-out: Fibrinogen Binding test IC50
# Description: 1. Fibrinogen Binding to Human Thrombocytes Blood obtained by puncture of an antecubital vein was anticoagulated with trisodium citrate (final concentration: 13 mM) and centrifuged for 10 minutes at 170 *g. The supernatant platelet-rich plasma was placed on a Sepharose 2B column (Pharmacia) and eluted with a solution of 90 mM common salt, 14 mM trisodium citrate, 5 mM glucose and 50 mM tris(hydroxymethyl)aminomethane, adjusted to pH 7.4. The gel-filtered platelets (GFP) appearing in front of the plasma proteins were used for the binding tests. 50 μl of a 60 mM calcium chloride solution, 50 μl of a 0.6 mM adenosine diphosphate solution, 100 μl of substance solution or solvent and 50 μl of fibrinogen solution (containing 3 μg I125-fibrinogen) were added to 750 μl of GFP and incubated for 20 minutes at ambient temperature. The non-specific binding was measured in the presence of 3 mg/ml of cold fibrinogen. 900 μl of the incubate were carefully pipetted onto 250 μl of silicon oil (AP 38: AR 20, 1:2 v/v, Wacker Chemie) in Eppendorf vessels and centrifuged for 2 minutes at 10,000 *g. The aqueous supernatant and some of the oil were removed, the tip of the vessel with the platelet pellet was cut off and the quantity of bound fibrinogen was measured in a gamma-counter. The concentration of substance which inhibited fibrinogen binding by 50% was calculated from a series of concentrations and given as the IC50.
Compound,EC50 [1] [nM],IC50 (Human Thrombocytes) [nM]
"N=C(N)c1ccc(-c2ccc(N3CCCN(CC(=O)O)C3=O)cc2)cc1 [1(5), 1-(4'-amidino-4-biphenylyl)-3-carboxymethyl-3,4,5,6-tetrahydro-1H-pyrimidin-2-one]",32000,6100
"N=C(N)c1ccc(-c2ccc(-n3ccn(CCC(=O)O)c3=O)cc2)cc1 [1(3), 1-(4'-amidino-4-biphenylyl)-3-(2-carboxy-ethyl)-3H-imidazol-2-one]",1700,190
"COC(=O)CCc1ccc(N2C(=O)CN(c3ccc(C(=N)NC(=O)OC)cc3)C2=O)cc1 [5(13), 1-(4-methoxycarbonylamidino-phenyl)-3-[4-(2-methoxycarbonyl-ethyl)-phenyl]-imidazolidin-2,4-dione]",24000,> 10000
"COC(=O)CCn1cc(-c2ccc(-c3ccc(C(=N)N)cc3)cc2)[nH]c1=O [2(104), 4-(4'-amidino-4-biphenylyl)-1-(2-methoxycarbonyl-ethyl)-3H-imidazol-2-one hydrochloride]",2100,7100
"N=C(N)c1ccc(-c2ccc(N3CCN(CC(=O)O)C3=O)cc2)cc1 [Example 1, 1-(4'-Amidino-4-biphenylyl)-3-carboxymethyl-imidazolidin-2-one]",9900,1800
"COC(=O)CCN1CCN(C2CCN(c3ccc(C(=N)N)cc3)CC2)C1=O [4(11), 1-[1-(4-amidino-phenyl)-4-piperidinyl]-3-(2-methoxycarbonyl-ethyl)-imidazolidin-2-one hydrochloride]",2300,45000
"N=C(N)c1ccc(N2CCN(CCc3ccc(C(=O)O)cc3)C2=O)cc1 [1(55), 1-(4-amidino-phenyl)-3-[2-(4-carboxyphenyl)-ethyl]-imidazolidin-2-one]",60000,860
"CC(N)c1ccc(N2CCN(c3ccc(CCC(=O)O)cc3)C2=O)cc1 (stereo not shown) [1(153), 1-[4-(1-amino-ethyl)-phenyl]-3-[4-(2-carboxy-ethyl)-phenyl]-imidazolidin-2-one]",380,150
"COC(=O)CCc1ccc(N2CCN(c3ccc(C(C)N)cc3)C2=O)cc1 (stereo not shown) [Example 31, 1-[4-(1-Amino-ethyl)-phenyl]-3-[4-(2-methoxycarbonyl-ethyl)-phenyl]-imidazolidin-2-one hydrochloride]",500,250
"COC(=O)CCCCN1CCN(c2ccc(C(=N)N)cc2)C1=O [2(71), 1-(4-amidino-phenyl)-3-(4-methoxycarbonyl-butyl)-imidazolidin-2-one hydrochloride]",14000,13000
"COC(=O)CCc1ccc(N2CCN(c3ccc4c(c3)CCC4N)C2=O)cc1 (stereo not shown) [31(1), 1-(1-amino-5-indanyl)-3-[4-(2-methoxycarbonyl-ethyl)-phenyl]-imidazolidin-2-one hydrochloride]",370,170
"N=C(N)c1ccc(N2CCN(c3ccc(SCC(=O)O)cc3)C2=O)cc1 [1(48), 1-(4-amidino-phenyl)-3-(4-carboxymethylthiophenyl)-imidazolidin-2-one]",1100,210
"COC(=O)CCc1ccc(-n2cc(-c3ccc(C(=N)N)cc3)n(C)c2=O)cc1 [2(81), 4-(4-amidino-phenyl)-1-[4-(2-methoxycarbonyl-ethyl)-phenyl]-3-methyl-3H-imidazol-2-one hydrochloride]",1500,19000
"COC(=O)CCn1cc(-c2ccc(-c3ccc(C(=N)N)cc3)cc2)n(C)c1=O [2(105), 4-(4'-amidino-4-biphenylyl)-1-(2-methoxycarbonyl-ethyl)-3-methyl-3H-imidazol-2-one hydrochloride]",1100,28000
"NCc1ccc(N2CCN(c3ccc(OCC(=O)O)cc3)C2=O)cc1 [1(141), 1-(4-aminomethyl-phenyl)-3-(4-carboxymethyloxyphenyl)-imidazolidin-2-one]",630,310

# Other lines, results leading:
EC50 [1] [nM],IC50 (Human Thrombocytes) [nM],Compound
300,42,"N=C(N)c1ccc(-c2ccc(C3CN(CCC(=O)O)C(=O)N3)cc2)cc1 (stereo not shown) [4(15), 4-(4'-amidino-4-biphenylyl)-1-(2-carboxy-ethyl)-imidazolidin-2-one hydrochloride]"
350,150,NCc1ccc(N2CCN(c3ccc(CCC(=O)O)cc3)C2=O)cc1 [1(59)]
70,3100,"COC(=O)CCc1ccc(-n2cnn(-c3ccc(C(=N)N)cc3)c2=O)cc1 [2(123), 2-(4-amidino-phenyl)-4-[4-(2-methoxycarbonyl-ethyl)-phenyl]-4H-1,2,4-triazol-3-one hydrochloride]"
370,450,"COC(=O)CCc1ccc(N2CCN(c3ccc(CN)cc3)C2=O)cc1 [8(2), 1-(4-aminomethyl-phenyl)-3-[4-(2-methoxycarbonyl-ethyl)-phenyl]-imidazolidin-2-one hydrochloride]"
100,37,"Cc1cc(C(=N)N)ccc1N1CCN(c2ccc(CCC(=O)O)cc2)C1=O [1(36), 1-(4-amidino-2-methyl-phenyl)-3-[4-(2-carboxy-ethyl)-phenyl]-imidazolidin-2-one]"
70,2000,"COC(=O)CCc1ccc(-n2c(C)nn(-c3ccc(C(=N)N)cc3)c2=O)cc1 [2(118), 2-(4-amidino-phenyl)-4-[4-(2-methoxycarbonyl-ethyl)-phenyl]-5-methyl-4H-1,2,4-triazol-3-one hydrochloride]"
60,30,"N=C(N)c1ccc(-n2ccn(-c3ccc(CCC(=O)O)cc3)c2=O)cc1 [1(67), 1-(4-amidino-phenyl)-3-[4-(2-carboxy-ethyl)-phenyl]-3H-imidazol-2-one]"
320,640,"COC(=O)CCc1ccc(N2CCN(c3ccc(C(=N)N)cc3)S2(=O)=O)cc1 [2(57), 2-(4-amidino-phenyl)-5-[4-(2-methoxycarbonyl-ethyl)-phenyl]-3,4-dihydro-2H,5H-1,2,5-thiadiazole-1,1-dioxide hydrochloride]"
200,4500,"COC(=O)CCc1ccc(N2C(=O)CN(c3ccc(C(=N)N)cc3)C2=O)cc1 [2(53), 1-(4-amidino-phenyl)-3-[4-(2-methoxycarbonyl-ethyl)-phenyl]-imidazolidin-2,4-dione hydrochloride]"
160,27,"N=C(N)c1ccc(-n2ccn(-c3ccc(C=CC(=O)O)cc3)c2=O)cc1 [1(147), 1-(4-amidino-phenyl)-3-[4-(2-carboxy-ethenyl)-phenyl]-3H-imidazol-2-one]"
110,25,"N=C(N)c1ccc(-n2ccn(-c3ccc(CC(N)C(=O)O)cc3)c2=O)cc1 (stereo not shown) [1(148), 1-(4-amidino-phenyl)-3-[4-(2-amino-2-carboxy-ethyl)-phenyl]-3H-imidazol-2-one]"
30,43,"Cc1nn(-c2ccc(C(=N)N)cc2)c(=O)n1-c1ccc(CCC(=O)OCC(C)C)cc1 [11(12), 2-(4-amidino-phenyl)-4-[4-(2-isobutyloxycarbonyl-ethyl)-phenyl]-5-methyl-4H-1,2,4-triazol-3-one hydrochloride]"
210,48,"N=C(N)c1ccc(N2CCN(c3ccc(CC(N)C(=O)O)cc3)C2=O)cc1 (stereo not shown) [4(18), 1-(4-amidino-phenyl)-3-[4-(2-amino-2-carboxy-ethyl)-phenyl]-imidazolidin-2-one]"
30,21,"CCc1nn(-c2ccc(C(=N)N)cc2)c(=O)n1-c1ccc(CCC(=O)O)cc1 [1(140), 2-(4-amidino-phenyl)-4-[4-(2-carboxy-ethyl)-phenyl]-5-ethyl-4H-1,2,4-triazol-3-one]"
50,6.5,"N=C(N)c1ccc(-n2cnn(-c3ccc(CCC(=O)O)cc3)c2=O)cc1 [1(146), 4-(4-amidino-phenyl)-2-[4-(2-carboxy-ethyl)-phenyl]-4H-1,2,4-triazol-3-one]"
290,45,"N=C(N)c1ccc(N2CCN(c3ccc(S(=O)(=O)CC(=O)O)cc3)C2=O)cc1 [1(50), 1-(4-amidino-phenyl)-3-(4-carboxymethylsulphonylphenyl)-imidazolidin-2-one]"
100,420,"COC(=O)CCC1CCC(N2CCN(c3ccc(C(=N)N)cc3)C2=O)CC1 (stereo not shown) [2(43), 1-(4-amidino-phenyl)-3-[4-(2-methoxycarbonyl-ethyl)-cyclohexyl]-imidazolidin-2-one hydrochloride]"

# — patent US5276049A, “Cyclic urea derivatives, pharmaceutical compositions containing these compounds and methods of using the same” (Dr. Karl Thomae GmbH, priority 1991, dated 1994)
